Reference: ChEMBL document CHEMBL4706528, “The design, synthesis and anti-tumor mechanism study of new androgen receptor degrader” (Eur J Med Chem, 2020)

Key:
[1] = system: LNCaP; assay: Antiproliferative activity against androgen-positive human LNCaP cells assessed as cell growth inhibition measured after 72 hrs by SRB assay; assay type: functional, cell-based
[2] = target: T1, Androgen receptor (Homo sapiens) (UniProt P10275); assay: Binding affinity to androgen receptor LBD (unknown origin) at 10 uM incubated for 4 hrs under dark by fluorescence polarization based binding assay relative to R1881
T1 sequence (whole entry): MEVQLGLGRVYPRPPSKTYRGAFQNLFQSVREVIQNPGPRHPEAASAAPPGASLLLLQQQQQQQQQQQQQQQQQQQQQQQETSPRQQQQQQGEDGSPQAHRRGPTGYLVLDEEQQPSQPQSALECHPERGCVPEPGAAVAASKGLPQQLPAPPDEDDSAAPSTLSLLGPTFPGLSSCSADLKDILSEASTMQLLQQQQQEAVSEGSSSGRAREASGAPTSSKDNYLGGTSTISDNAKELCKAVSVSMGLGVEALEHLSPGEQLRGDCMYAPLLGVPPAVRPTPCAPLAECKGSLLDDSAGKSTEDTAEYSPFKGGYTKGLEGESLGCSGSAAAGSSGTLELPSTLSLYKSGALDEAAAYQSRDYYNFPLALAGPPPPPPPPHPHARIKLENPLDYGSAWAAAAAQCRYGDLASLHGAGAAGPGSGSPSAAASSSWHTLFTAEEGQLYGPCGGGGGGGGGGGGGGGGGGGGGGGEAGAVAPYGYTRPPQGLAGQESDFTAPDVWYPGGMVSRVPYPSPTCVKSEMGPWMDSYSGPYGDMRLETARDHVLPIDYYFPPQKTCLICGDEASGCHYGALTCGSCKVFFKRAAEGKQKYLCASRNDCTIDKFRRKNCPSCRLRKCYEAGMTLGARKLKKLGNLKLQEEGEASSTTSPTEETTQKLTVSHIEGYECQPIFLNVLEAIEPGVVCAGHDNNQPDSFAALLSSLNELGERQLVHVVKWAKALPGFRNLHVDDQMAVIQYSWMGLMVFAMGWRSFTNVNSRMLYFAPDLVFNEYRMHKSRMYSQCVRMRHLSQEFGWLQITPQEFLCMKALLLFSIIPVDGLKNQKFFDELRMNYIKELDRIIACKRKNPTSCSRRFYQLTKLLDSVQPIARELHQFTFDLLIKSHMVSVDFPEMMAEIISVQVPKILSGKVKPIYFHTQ

[3] = system: LNCaP C4-2B; assay: Antiproliferative activity against androgen-sensitive positive human LNCaP C4-2B cells assessed as cell growth inhibition measured after 72 hrs by SRB assay; assay type: functional, cell-based
[4] = system: PC-3; assay: Antiproliferative activity against androgen-negative human PC-3 cells assessed as cell growth inhibition measured after 72 hrs by SRB assay; assay type: functional, cell-based; settings: PC-3, 72 h
[5] = Cytotoxicity against androgen-negative human WPMY-1 cells assessed as cell growth inhibition measured after 72 hrs by SRB assay; assay type: cell-based; settings: WPMY-1, 72 h

Row | IC50 [1] | Activity [2] | IC50 [3] | IC50 [4] | Compound | IC50 [5]
1 | > 80 µM | 39.1% | 12.2 µM | > 80 µM | CC1(C)C(=O)N(c2ccc(C#N)c(C(F)(F)F)c2)C(=S)N1Cc1ccc(-n2cc(COCCOCCOCCOCCOCCOC(=O)CC34CC5CC(CC(C5)C3)C4)nn2)cc1 | > 80 µM
2 | > 80 µM | 37.9% | > 80 µM | > 80 µM | CC1(C)C(=O)N(c2ccc(C#N)c(C(F)(F)F)c2)C(=S)N1Cc1ccc(OCCCOC(=O)CC23CC4CC(CC(C4)C2)C3)cc1 | > 80 µM
3 | > 80 µM | 22.2% | 17.4 µM | > 80 µM | CC1(C)C(=O)N(c2ccc(C#N)c(C(F)(F)F)c2)C(=S)N1Cc1cn(CCOCCOC(=O)CC23CC4CC(CC(C4)C2)C3)nn1 | > 80 µM
4 | 4.06 µM | 24.3% | 11.2 µM | > 80 µM | CC1(C)C(=O)N(c2ccc(C#N)c(C(F)(F)F)c2)C(=O)N1CCCn1cc(COCCCOC(=O)CC23CC4CC(CC(C4)C2)C3)nn1 | > 80 µM
5 | > 80 µM | 26% | > 80 µM | > 80 µM | CC1(C)C(=O)N(c2ccc(C#N)c(C(F)(F)F)c2)C(=S)N1Cc1ccc(-n2cc(COCCCOC(=O)CC34CC5CC(CC(C5)C3)C4)nn2)cc1 | > 80 µM
6 | 6.64 µM | 31.6% | 10.6 µM | > 80 µM | CC1(C)C(=O)N(c2ccc(C#N)c(C(F)(F)F)c2)C(=S)N1CCCn1cc(COCCCOC(=O)CC23CC4CC(CC(C4)C2)C3)nn1 | > 80 µM
7 | 4.25 µM | 69.3% | 7.64 µM | > 80 µM | CC1(C)C(=O)N(c2ccc(C#N)c(C(F)(F)F)c2)C(=S)N1CCCn1cc(COCCOCCOCCOCCOC(=O)CC23CC4CC(CC(C4)C2)C3)nn1 | > 80 µM
8 | > 80 µM | 34.2% | > 80 µM | > 80 µM | CC1(C)C(=O)N(c2ccc(C#N)c(C(F)(F)F)c2)C(=S)N1Cc1ccc(OCCOCCOC(=O)CC23CC4CC(CC(C4)C2)C3)cc1 | > 80 µM
9 | > 80 µM | 35.8% | > 80 µM | > 80 µM | CC1(C)C(=O)N(c2ccc(C#N)c(C(F)(F)F)c2)C(=S)N1Cc1ccc(OCCOCCOCCOCCOC(=O)CC23CC4CC(CC(C4)C2)C3)cc1 | > 80 µM
10 | > 80 µM | 20.1% | > 80 µM | > 80 µM | CC1(C)C(=O)N(c2ccc(C#N)c(C(F)(F)F)c2)C(=O)N1Cc1ccc(-n2cc(COCCOCCOCCOC(=O)CC34CC5CC(CC(C5)C3)C4)nn2)cc1 | > 80 µM
11 | > 80 µM | 25.3% | > 80 µM | > 80 µM | CC1(C)C(=O)N(c2ccc(C#N)c(C(F)(F)F)c2)C(=S)N1Cc1ccc(-n2cc(COCCOCCOCCOC(=O)CC34CC5CC(CC(C5)C3)C4)nn2)cc1 | > 80 µM
12 | > 80 µM | 26.3% | > 80 µM | > 80 µM | CC1(C)C(=O)N(c2ccc(C#N)c(C(F)(F)F)c2)C(=O)N1Cc1ccc(OCCOCCOC(=O)CC23CC4CC(CC(C4)C2)C3)cc1 | > 80 µM
13 | > 80 µM | 52.8% | 11.9 µM | > 80 µM | CC1(C)C(=O)N(c2ccc(C#N)c(C(F)(F)F)c2)C(=O)N1Cc1cn(CCOCCOC(=O)CC23CC4CC(CC(C4)C2)C3)nn1 | > 80 µM
14 | > 80 µM | 39.9% | > 80 µM | > 80 µM | CC1(C)C(=O)N(c2ccc(C#N)c(C(F)(F)F)c2)C(=S)N1Cc1ccc(-n2cc(COCCOCCOCCOCCOC(=O)CC34CC5CC(CC(C5)C3)C4)nn2)cc1 | > 80 µM
15 | 9.96 µM | 47% | 11.7 µM | > 80 µM | CC1(C)C(=O)N(c2ccc(C#N)c(C(F)(F)F)c2)C(=O)N1CCCn1cc(COCCOCCOCCOCCOC(=O)CC23CC4CC(CC(C4)C2)C3)nn1 | > 80 µM
16 | 6.31 µM | 69.1% | 11.2 µM | > 80 µM | CC1(C)C(=O)N(c2ccc(C#N)c(C(F)(F)F)c2)C(=S)N1Cc1cn(CCOCCOCCOCCOC(=O)CC23CC4CC(CC(C4)C2)C3)nn1 | > 80 µM
17 | 6.87 µM | 29.8% | 7.76 µM | > 80 µM | CC1(C)C(=O)N(c2ccc(C#N)c(C(F)(F)F)c2)C(=O)N1Cc1cn(CCOCCOCCOCCOC(=O)CC23CC4CC(CC(C4)C2)C3)nn1 | > 80 µM
18 | > 80 µM | 52.8% | > 80 µM | > 80 µM | CC1(C)C(=O)N(c2ccc(C#N)c(C(F)(F)F)c2)C(=S)N1Cc1cn(CCCOC(=O)CC23CC4CC(CC(C4)C2)C3)nn1 | > 80 µM
19 | > 80 µM | 35.8% | > 80 µM | > 80 µM | CC1(C)C(=O)N(c2ccc(C#N)c(C(F)(F)F)c2)C(=S)N1Cc1ccc(-n2cc(COCCOCCOC(=O)CC34CC5CC(CC(C5)C3)C4)nn2)cc1 | > 80 µM
20 | > 80 µM | 51.8% | > 80 µM | > 80 µM | CC1(C)C(=O)N(c2ccc(C#N)c(C(F)(F)F)c2)C(=O)N1Cc1ccc(-n2cc(COCCOCCOCCOCCOC(=O)CC34CC5CC(CC(C5)C3)C4)nn2)cc1 | > 80 µM
21 | > 80 µM | 43.4% | > 80 µM | > 80 µM | CC1(C)C(=O)N(c2ccc(C#N)c(C(F)(F)F)c2)C(=O)N1Cc1cn(CCCOC(=O)CC23CC4CC(CC(C4)C2)C3)nn1 | > 80 µM
22 | 7.7 µM | 46.7% | 8.34 µM | > 80 µM | CC1(C)C(=O)N(c2ccc(C#N)c(C(F)(F)F)c2)C(=O)N1Cc1cn(CCOCCOCCOC(=O)CC23CC4CC(CC(C4)C2)C3)nn1 | > 80 µM
23 | > 80 µM | 19.1% | > 80 µM | > 80 µM | CC1(C)C(=O)N(c2ccc(C#N)c(C(F)(F)F)c2)C(=O)N1Cc1ccc(-n2cc(COCCCOC(=O)CC34CC5CC(CC(C5)C3)C4)nn2)cc1 | > 80 µM
24 | > 80 µM | 32% | 14.6 µM | > 80 µM | CC1(C)C(=O)N(c2ccc(C#N)c(C(F)(F)F)c2)C(=S)N1Cc1ccc(OCCOCCOCCOC(=O)CC23CC4CC(CC(C4)C2)C3)cc1 | > 80 µM
25 | 6.92 µM | 33.7% | 6.61 µM | > 80 µM | CC1(C)C(=O)N(c2ccc(C#N)c(C(F)(F)F)c2)C(=S)N1CCCn1cc(COCCOCCOCCOCCOCCOC(=O)CC23CC4CC(CC(C4)C2)C3)nn1 | > 80 µM
26 | 33.9 µM | 32.3% | > 80 µM | > 80 µM | CC1(C)C(=O)N(c2ccc(C#N)c(C(F)(F)F)c2)C(=S)N1CCCCCCn1cc(COCCOCCOC(=O)CC23CC4CC(CC(C4)C2)C3)nn1 | > 80 µM
27 | > 80 µM | 36.7% | > 80 µM | > 80 µM | CC1(C)C(=O)N(c2ccc(C#N)c(C(F)(F)F)c2)C(=O)N1Cc1ccc(-n2cc(COCCOCCOC(=O)CC34CC5CC(CC(C5)C3)C4)nn2)cc1 | > 80 µM
28 | 6.66 µM | 33.9% | 9.95 µM | > 80 µM | CC1(C)C(=O)N(c2ccc(C#N)c(C(F)(F)F)c2)C(=O)N1CCCn1cc(COCCOCCOCCOC(=O)CC23CC4CC(CC(C4)C2)C3)nn1 | > 80 µM
29 | 7.28 µM | 41.9% | 12.3 µM | > 80 µM | CC1(C)C(=O)N(c2ccc(C#N)c(C(F)(F)F)c2)C(=O)N1CCCn1cc(COCCOCCOC(=O)CC23CC4CC(CC(C4)C2)C3)nn1 | > 80 µM
30 | 9.13 µM | 35.1% | > 80 µM | > 80 µM | CC1(C)C(=O)N(c2ccc(C#N)c(C(F)(F)F)c2)C(=S)N1Cc1cn(CCOCCOCCOC(=O)CC23CC4CC(CC(C4)C2)C3)nn1 | > 80 µM
